As usually defined, the LD50 is the dose expected to kill half of the subjects tested.

In series [1] the test system is coronary artery in enucleated heart of guinea-pig. In words: Effect on perfusion volume in coronary artery, enucleated heart of guinea-pig (Langendorf method). The method, then:
(§1) The effects of the compounds of this invention on the heat systole and the perfusion volume in the coronary artery in enucleated heart of guinea-pig were determined in accordance with the Langendorf method.

The nature of series [2]: Stability to light (sun light, quartz dish, visual appearance). Further details: key to Change in appearance on light exposure: (-): No change. It is filed as physicochemical.
A further series deals with femoral artery. In words: Blood flow increasing activity in femoral artery of anesthetized dog (intravenous). Type of series: in vivo. As to conditions: i.v. The method, then: (§2) A dog was anesthetized with pentobarital sodium at a dose of 30 mg/kg (intravenous injection) and, under artificial respiration, the blood flow in the coronary, vertebral and femoral arteries was determined using an electromagnetic blood-flow meter. The blood pressure was also measured simultaneously. The test compound was dissolved in ethanol at a concentration of 1% by weight of the compound and then diluted to a volume of 10 times with a 80% aqueous solution of polyethylene glycol 400. The resulting solution was further diluted with a 0.9% physiological saline solution and administered intravenously into the femoral vein at a dose shown in Tables 1 and 2.

The next series concerns coronary artery. The experiment in a line: Blood flow increasing activity in coronary artery of anesthetized dog (intravenous). It is filed as in vivo. As to conditions: i.v. The method, then:
as §2

Series [3] concerns enucleated heart of guinea-pig. The experiment in a line: Effect on heart systole, enucleated heart of guinea-pig (Langendorf method). The method, then:
as §1

The subject of another series is vertebral artery. The experiment in a line: Blood flow increasing activity in vertebral artery of anesthetized dog (intravenous). It is filed as in vivo. As to conditions: i.v. Here is the method:
as §2

In series [4] the test system is coronary, vertebral and femoral arteries. In words: Blood flow increasing / vasodilating activity in coronary, vertebral and femoral arteries (overall statements). It is filed as in vivo, dog. As to conditions: Table 2. Here is the method:
as §2

The next series can be described thus: in vivo. As to conditions: mouse, oral, ddy male mice, mortality one week after administration.
The conditions of series [5]: German OLS Nos. 2,117,571 and 2,117,573; cited from earlier work.
The mark [6] stands for this setting: exposure for a total of 8 hours.
The mark [7] stands for this setting: 3 mg/kg, Table 2 (separate test).

Consider `COC(=O)C1=C(C)NC(C)=C(C(=O)OCC2(C)OCCO2)C1c1cccc([N+](=O)[O-])c1` (stereo not drawn) [Compound A, Methyl 2,2-ethylenedioxypropyl 2,6-dimethyl-4-(3-nitrophenyl)-1,4-dihydropyridine-3,5-dicarboxylate], for which the “Effects on Coronary Artery: Duration of Effect” value was 34.6 min in series [1] (dose 1 × 10^-6 g) and 15.6 min in series [1] (dose 1 × 10^-7 g). In addition, the results for the “Effects on Coronary Artery: Total Perfusion Volume” value in series [1] (dose 1 × 10^-6 g) and in series [1] (dose 1 × 10^-7 g) were 737.8 drops and 165.0 drops, respectively. Moreover, the “Change in appearance on light exposure” value in series [2] (5 min. sun light), in [2] (1 hour sun light), in series [2] (2 hours sun light) and in series [2] (3 hours sun light) was “(-)” each time. Moreover, the “changes on light exposure” value in [2] (setting [6]) is on record as “did not show any changes”. The “Duration of Activity, Femoral Artery” value in the series on femoral artery (1 mg/kg, Table 1) was 9.0; in the series with femoral artery (3 mg/kg, Table 1), 19.3. In addition, the “Total Increase in Blood Flow, Femoral Artery” value in the series on femoral artery (1 mg/kg, Table 1) was 104 mL; in the series on femoral artery (3 mg/kg, Table 1), 316 mL. Moreover, the “Duration of Activity, Coronary Artery” value with coronary artery (1 mg/kg, Table 1) is recorded as 5.5; with coronary artery (3 mg/kg, Table 1), 17.5. For the same molecule, the “Total Increase in Blood Flow, Coronary Artery” value is 22 mL in the series on coronary artery (1 mg/kg, Table 1) and 164 mL in the series on coronary artery (3 mg/kg, Table 1). For the same molecule, the “Effects on Heart Systole: Duration of Effect” value turned out to be 4.6 min in series [3] (dose 1 × 10^-6 g) and 1.3 min in series [3] (dose 1 × 10^-7 g). The “Duration of Activity, Vertebral Artery” value with vertebral artery (1 mg/kg, Table 1) was determined as 11.7; with vertebral artery (3 mg/kg, Table 1) it was 27.3. Also, the “Total Increase in Blood Flow, Vertebral Artery” value came out at 64 mL in the series on vertebral artery (1 mg/kg, Table 1) and 288 mL in the series on vertebral artery (3 mg/kg, Table 1).

Consider `COC(=O)C1=C(C)NC(C)=C(C(=O)OCC(C)=O)C1c1ccccc1[N+](=O)[O-]` (stereo not drawn) [Compound B, Methyl 2-oxopropyl 2,6-dimethyl-4-(2-nitrophenyl)-1,4-dihydropyridine-3,5-dicarboxylate], for which, in the series with femoral artery (1 mg/kg, Table 1), the “Duration of Activity, Femoral Artery” value amounted to 4.0 and the “Total Increase in Blood Flow, Femoral Artery” value amounted to 20 mL. Besides, in the series on femoral artery (3 mg/kg, Table 1), the “Duration of Activity, Femoral Artery” value came out at 58.5 and the “Total Increase in Blood Flow, Femoral Artery” value turned out to be 774 mL. Also, in the series on coronary artery (1 mg/kg, Table 1), the “Duration of Activity, Coronary Artery” value is on record as 10.0 and the “Total Increase in Blood Flow, Coronary Artery” value amounted to 37 mL. In addition, in the series on coronary artery (3 mg/kg, Table 1), the “Duration of Activity, Coronary Artery” value came to 35.0 and the “Total Increase in Blood Flow, Coronary Artery” value is 392 mL. Besides, in the series on vertebral artery (1 mg/kg, Table 1), the “Duration of Activity, Vertebral Artery” value came to 7.5 and the “Total Increase in Blood Flow, Vertebral Artery” value stood at 29 mL. Also, in the series with vertebral artery (3 mg/kg, Table 1), the “Duration of Activity, Vertebral Artery” value is on record as 35.5 and the “Total Increase in Blood Flow, Vertebral Artery” value amounted to 309 mL.

Regarding `COC(=O)C1=C(C)NC(C)=C(C(=O)OCC2CC2)C1c1cccc([N+](=O)[O-])c1` (stereo not drawn) [Compound C, Cyclopropylmethyl methyl 2,6-dimethyl-4-(3-nitrophenyl)-1,4-dihydropyridine-3,5-dicarboxylate], the “Change in appearance on light exposure” value in series [2] (5 min. sun light), in series [2] (1 hour sun light), in series [2] (2 hours sun light), in [2] (3 hours sun light) and in [2] (8 hours sun light) was “(-)” in each case. Also, the “changes on light exposure” value in series [2] (setting [6]) is “did not show any changes”. Further, the “Duration of Activity, Femoral Artery” value in the series on femoral artery (setting [7]) worked out at 26; in the series on femoral artery (10 mg/kg, Table 2), 60. Also, the “Total Increase in Blood Flow, Femoral Artery” value in the series on femoral artery (setting [7]) turned out to be 367 mL; in the series with femoral artery (10 mg/kg, Table 2) it was 811 mL. Besides, the “duration of vasodilation effect compared with Compound F” value in [4] is “significantly higher”. Moreover, in [4], the “vasodilation effect compared with Compound F” value is recorded as “significantly higher”. In the series “in vivo”, this molecule showed an LD50 at 168 h of 1450 mg/kg. The “Duration of Activity, Coronary Artery” value with coronary artery (setting [7]) was determined as 49; in the series with coronary artery (10 mg/kg, Table 2) it was 66. Also, the “Total Increase in Blood Flow, Coronary Artery” value turned out to be 580 mL in the series with coronary artery (setting [7]) and 2772 mL with coronary artery (10 mg/kg, Table 2). Also, the “Duration of Activity, Vertebral Artery” value was found to be 37 with vertebral artery (setting [7]) and 78 with vertebral artery (10 mg/kg, Table 2). Besides, the “Total Increase in Blood Flow, Vertebral Artery” value with vertebral artery (setting [7]) was 463 mL; in the series with vertebral artery (10 mg/kg, Table 2) it was 1691 mL.

`CCOC(=O)C1=C(C)NC(C)=C(C(=O)OCC2CC2)C1c1cccc([N+](=O)[O-])c1` (stereo not drawn) [Compound D, Cyclopropylmethyl ethyl 2,6-dimethyl-4-(3-nitrophenyl)-1,4-dihydropyridine-3,5-dicarboxylate]: the “Change in appearance on light exposure” value in series [2] (5 min. sun light), in series [2] (1 hour sun light), in [2] (2 hours sun light), in series [2] (3 hours sun light) and in [2] (8 hours sun light) was “(-)” each time. In [2] (setting [6]), the “changes on light exposure” value is listed as “did not show any changes”. In addition, the “Duration of Activity, Femoral Artery” value with femoral artery (setting [7]) was 16. Also, the “Total Increase in Blood Flow, Femoral Artery” value in the series on femoral artery (setting [7]) was 173 mL. In addition, the LD50 at 168 h in “in vivo” was 2000 mg/kg. For the same molecule, the “Duration of Activity, Coronary Artery” value with coronary artery (setting [7]) worked out at 32. Further, in the series on coronary artery (setting [7]), the “Total Increase in Blood Flow, Coronary Artery” value was 308 mL. Besides, the “Duration of Activity, Vertebral Artery” value with vertebral artery (setting [7]) came to 17. Further, the “Total Increase in Blood Flow, Vertebral Artery” value in the series on vertebral artery (setting [7]) is 212 mL.

`CCCOC(=O)C1=C(C)NC(C)=C(C(=O)OCC2CC2)C1c1cccc([N+](=O)[O-])c1` (stereo not drawn) [Compound E, Cyclopropylmethyl propyl 2,6-dimethyl-4-(3-nitrophenyl)-1,4-dihydropyridine-3,5-dicarboxylate]: the “Change in appearance on light exposure” value in [2] (5 min. sun light), in series [2] (1 hour sun light), in series [2] (2 hours sun light), in series [2] (3 hours sun light) and in series [2] (8 hours sun light) was “(-)” throughout. Further, the “changes on light exposure” value in series [2] (setting [6]) is on record as “did not show any changes”. For the same molecule, the “Duration of Activity, Femoral Artery” value in the series with femoral artery (setting [7]) is listed as 20. Also, the “Total Increase in Blood Flow, Femoral Artery” value in the series with femoral artery (setting [7]) was 285 mL. The LD50 at 168 h in the series “in vivo” was 2000 mg/kg. Further, the “Duration of Activity, Coronary Artery” value in the series on coronary artery (setting [7]) is reported as 22. Also, the “Total Increase in Blood Flow, Coronary Artery” value with coronary artery (setting [7]) is 148 mL. Moreover, the “Duration of Activity, Vertebral Artery” value in the series with vertebral artery (setting [7]) turned out to be 19. Further, in the series with vertebral artery (setting [7]), the “Total Increase in Blood Flow, Vertebral Artery” value was 262 mL.

On to `COC(=O)C1=C(C)NC(C)=C(C(=O)OCC(C)C)C1c1ccccc1[N+](=O)[O-]` (stereo not drawn) [Compound F, Isobutyl methyl 2,6-dimethyl-4-(2-nitrophenyl)-1,4-dicarboxylate, reference compound], for which the “color changes on light exposure” value in series [2] (5 minutes' exposure) is recorded as “slight color changes”. In addition, the “changes on light exposure” value in series [2] (after more than 5 minutes' exposure ("thereafter")) is “marked changes”. In addition, in the series on femoral artery (setting [7]), the “Duration of Activity, Femoral Artery” value stood at 27 and the “Total Increase in Blood Flow, Femoral Artery” value worked out at 365 mL. Also, in the series with femoral artery (10 mg/kg, Table 2), the “Duration of Activity, Femoral Artery” value was determined as 58 and the “Total Increase in Blood Flow, Femoral Artery” value came out at 874 mL. In “in vivo”, this molecule registered a 50% lethal dose (LD50) at 168 h of 465 mg/kg. Also, in the series on coronary artery (setting [7]), the “Duration of Activity, Coronary Artery” value came to 31 and the “Total Increase in Blood Flow, Coronary Artery” value was determined as 353 mL. In the series with coronary artery (10 mg/kg, Table 2), the “Duration of Activity, Coronary Artery” value was 55 and the “Total Increase in Blood Flow, Coronary Artery” value worked out at 863 mL. Moreover, in the series with vertebral artery (setting [7]), the “Duration of Activity, Vertebral Artery” value is on record as 34 and the “Total Increase in Blood Flow, Vertebral Artery” value stood at 347 mL.

Turning to `CCOC(=O)C1=C(C)NC(C)=C(C(=O)OC2CCCCC2)C1c1cccc([N+](=O)[O-])c1` (stereo not drawn) [cyclohexyl ethyl 2,6-dimethyl-4-(3-nitrophenyl)-1,4-dihydropyridine-3,5-dicarboxylate], the “activities, reported” value in series [5] is recorded as “weak activities”.

The values above are taken from patent publication US4446325A, “1,4-Dihydropyridine compounds” (priority 1981, dated 1984).
